Usually IC50 stands for the concentration needed to halve the response being measured. Low values mean inhibition by little substance, high ones a need for much substance.

These results are taken from US9896447B2, “TrkA kinase inhibitors, compositions and methods thereof” (MERCK SHARP & DOHME CORP., priority 2013, dated 2018).

This assay concerns the target TrkA receptor (Homo sapiens (Human), UniProt P04629). Briefly: DiscoverX PathHunter TrkA functional assay (U2OS cells, NGF stimulated). The format is cell-based. To be noted: U2OS cells expressing TrkA-Prolink and Shc1-EA; compound 1 hour, then EC80 of NGF for 3 hours; luminescence. As for the experimental part: TrkA functional activity was measured using a DiscoverX PathHunter assay. In this assay, U2OS cells are express TrkA receptor as a fusion with the weakly complementing fragment of B-galactosidase, which DiscoverX calls “Prolink (PK)”; additionally, Shc1 is fused with a larger fragment, which is called “Enzyme Acceptor (EA)”. Activation of the TrkA receptor, upon NGF addition, results in the kinase domain being phosphorylated, resulting in subsequent recruitment of Shc1-EA protein. That recruitment results in an active B-galactosidase enzyme that is detected by addition of a chemiluminescent substrate.
All reagents were purchased from DiscoverX, except for the receptor agonists (NGF, BDNF, NT3) which were purchased from Peprotech. Cells were expanded and frozen into cryovials (TrkA p75 @ passage 13, 1.5×10^7 cells/vial; TrkC p75 @ passage 11, 1.5×10^7 cells/vial in InVitrogen Recovery Cell Freezing media), and stored in the vapor phase of liquid nitrogen, and thawed immediately before use. Thawed cells were added to a 384-well plate (BD Falcon 384-well white/clear, TC surface 120 uL assay plates (353963), 20 uL of 0.375e6 cells/mL=>7500 cells/well), and allowed to incubate overnight. Compound (10 mM starting dose: 202.5 nL compound yielding 0.81% DMSO final in total assay volume and starting doses 81 uM) was added the following morning and allowed to incubate on cells for 1 hour. Then, 5 uL EC80 of agonist (NGF for TrkA; BDNF for TrkB; NT3 for TrkC) was added and allowed to incubate for 3 hours at room temperature. DiscoverX PathHunter detection reagent is added (12 uL to plate and components diluted in parts as per kit instructions) and the plate is further incubated for 1 hour in the dark. The plate is read via luminescence on the Perkin Elmer Envision.

Sequence of TrkA receptor (P04629 33-796): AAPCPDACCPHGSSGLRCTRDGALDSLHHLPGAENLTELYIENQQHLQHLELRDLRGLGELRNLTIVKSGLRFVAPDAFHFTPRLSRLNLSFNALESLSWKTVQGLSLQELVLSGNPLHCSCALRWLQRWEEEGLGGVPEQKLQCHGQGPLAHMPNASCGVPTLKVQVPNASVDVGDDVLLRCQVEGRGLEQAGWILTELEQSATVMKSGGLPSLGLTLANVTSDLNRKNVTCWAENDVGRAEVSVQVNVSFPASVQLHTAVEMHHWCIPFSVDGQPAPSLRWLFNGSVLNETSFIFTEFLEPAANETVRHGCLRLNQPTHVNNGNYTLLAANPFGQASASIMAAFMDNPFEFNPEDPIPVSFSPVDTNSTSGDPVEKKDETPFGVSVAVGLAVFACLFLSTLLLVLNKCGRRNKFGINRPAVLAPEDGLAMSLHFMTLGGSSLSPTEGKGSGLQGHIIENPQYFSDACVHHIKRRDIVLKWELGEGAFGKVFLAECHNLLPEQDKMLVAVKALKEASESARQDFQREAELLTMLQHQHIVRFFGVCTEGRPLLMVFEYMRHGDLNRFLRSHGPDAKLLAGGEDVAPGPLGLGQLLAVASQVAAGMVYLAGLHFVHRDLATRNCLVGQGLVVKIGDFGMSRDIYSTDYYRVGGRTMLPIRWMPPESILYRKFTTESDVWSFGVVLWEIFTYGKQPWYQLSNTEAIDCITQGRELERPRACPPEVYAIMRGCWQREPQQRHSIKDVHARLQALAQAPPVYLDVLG

As to `O=C(Nc1c(-c2ccccc2)nc2ccccn12)Nc1c(-c2ccccc2)nc2ccccn12` [Compound 1, 1,3-bis(2-phenylimidazo[1,2-a]pyridin-3-yl)urea], 0.082 µM corresponded to half-maximal inhibition (IC50). The molecule `O=C(Nc1ccccn1)Nc1cc(-c2ccccc2)nn1-c1ccccc1` [Compound 2, 1-(1,3-diphenyl-1H-pyrazol-5-yl)-3-pyridin-2-ylurea] registered an IC50 of 0.16 µM.

The molecule `Cc1cc(NC(=O)Nc2cc(C)nn2-c2ccccc2)n(-c2ccccc2)n1` [Compound 3, 1,3-bis(3-methyl-1-phenyl-1H-pyrazol-5-yl)urea] displayed an IC50 of 2.7 µM. Consider `Cc1cc(NC(=O)Nc2cccc3ccccc23)n(-c2ccccc2)n1` [Compound 4, 1-(3-methyl-1-phenyl-1H-pyrazol-5-yl)-3-naphthalen-1-ylurea], for which half-maximal inhibition (IC50) required 0.59 µM. Against the preceding molecule, the IC50 is about 4.6-fold lower. Molecule `Cc1cc(NC(=O)Nc2cccc(Br)n2)n(-c2ccccc2)n1` [Compound 5, 1-(6-bromopyridin-2-yl)-3-(3-methyl-1-phenyl-1H-pyrazol-5-yl)urea] returned an IC50 of 4.8 µM.

Molecule `Cc1cc(NC(=O)Nc2ccccc2-c2ccccc2)n(-c2ccccc2)n1` [Compound 6, 1-biphenyl-2-yl-3-(3-methyl-1-phenyl-1H-pyrazol-5-yl)urea] registered an IC50 of 0.42 µM. As for `Cc1cc(NC(=O)Nc2cccc(C)c2C)n(-c2ccccc2)n1` [Compound 7, 1-(2,3-dimethylphenyl)-3-(3-methyl-1-phenyl-1H-pyrazol-5-yl)urea], the concentration for half-maximal inhibition (IC50) was 4.8 µM. Next, `Cc1cc(NC(=O)Nc2cc(Br)ccn2)n(-c2ccccc2)n1` [Compound 8, 1-(4-bromopyridin-2-yl)-3-(3-methyl-1-phenyl-1H-pyrazol-5-yl)urea]: 3 µM; `O=C(Nc1ccccn1)Nc1cc(-c2ccncc2)nn1-c1ccccc1` [Compound 9, 1-(1-phenyl-3-pyridin-4-yl-1H-pyrazol-5-yl)-3-pyridin-2-ylurea]: 0.35 µM; `Cc1cc(NC(=O)Nc2ccccn2)n(-c2ccccc2)n1` [Compound 10, 1-(3-methyl-1-phenyl-1H-pyrazol-5-yl)-3-pyridin-2-ylurea]: 1.8 µM. In the case of `COc1ccc(NC(=O)Nc2cc(C)nn2-c2ccccc2)nc1` [Compound 11, 1-(5-methoxypyridin-2-yl)-3-(3-methyl-1-phenyl-1H-pyrazol-5-yl)urea], the IC50 came out at 3.4 µM. Compared with the last molecule, the IC50 is about 1.9-fold higher.

With `Cc1ccc(NC(=O)Nc2ccccn2)c(-c2ccccc2)n1` [Compound 12, 1-(6-methyl-2-phenylpyridin-3-yl)-3-pyridin-2-ylurea], the half-inhibitory concentration (IC50) came to 1.1 µM. Molecule `Cc1ncc(NC(=O)Nc2ccccc2-c2ccccc2)c(-c2ccccc2)n1` [Compound 13, 1-biphenyl-2-yl-3-(2-methyl-4-phenylpyrimidin-5-yl)urea] displayed an IC50 of 2.3 µM. Turning to `Cc1onc(-c2ccccc2)c1NC(=O)NCc1ccccc1C(F)(F)F` [Compound 14, 1-(5-methyl-3-phenylisoxazol-4-yl)-3-[2-(trifluoromethyl)benzyl]urea], half-maximal inhibition (IC50) was put at 0.35 µM. Compared with the last molecule, the IC50 is about 6.6-fold lower. Molecule `Cc1ncc(NC(=O)Nc2cccc3ccccc23)c(-c2ccccc2)n1` [Compound 15, 1-(2-methyl-4-phenylpyrimidin-5-yl)-3-naphthalen-1-ylurea] registered an IC50 of 4.1 µM. Molecule `O=C(Nc1cccc2ccccc12)Nc1c(-c2ccccc2)nc2sccn12` [Compound 16, 1-naphthalen-1-yl-3-(6-phenylimidazo[2,1-b][1,3]thiazol-5-yl)urea] gave an IC50 of 0.29 µM. This IC50 lies about 14-fold lower than the previous one. For `Cc1ncc(NC(=O)Nc2cnc(C)nc2-c2ccccc2)c(-c2ccccc2)n1` [Compound 17, 1,3-bis(2-methyl-4-phenylpyrimidin-5-yl)urea] the value was 1.4 µM; for `CSc1ncc(NC(=O)Nc2cnc(SC)nc2-c2ccccc2)c(-c2ccccc2)n1` [Compound 18, 1,3-bis[2-(methylsulfanyl)-4-phenylpyrimidin-5-yl]urea], 0.28 µM. Take `Cc1ncc(NC(=O)Nc2ccccn2)c(-c2ccccc2)n1` [Compound 20, 1-(2-methyl-4-phenylpyrimidin-5-yl)-3-pyridin-2-ylurea]: the IC50 came to 4 µM. This IC50 is about 14-fold higher than that of the molecule before. `Cc1ncc(NC(=O)Nc2c(-c3ccccc3)nc3ccccn23)c(-c2ccccc2)n1` [Compound 21, 1-(2-methyl-4-phenylpyrimidin-5-yl)-3-(2-phenylimidazo[1,2-a]pyridin-3-yl)urea]: 0.15 µM corresponded to half-maximal inhibition (IC50). This IC50 lies about 27-fold lower than the previous one. For `O=C(Nc1ccc(C(F)(F)F)cc1Cl)Nc1c(-c2ccccc2)nc2ccccn12` [Compound 22, 1-[2-chloro-4-(trifluoromethyl)phenyl]-3-(2-phenylimidazo[1,2-a]pyridin-3-yl)urea] the value was 4.2 µM; for `O=C(Nc1ccc(C(F)(F)F)cc1)Nc1c(-c2ccccc2)nc2ccccn12` [Compound 23, 1-(2-phenylimidazo[1,2-a]pyridin-3-yl)-3-[4-(trifluoromethyl)phenyl]urea], 4.3 µM; for `O=C(Nc1cccnc1-c1ccccc1)Nc1c(-c2ccccc2)nc2ccccn12` [Compound 24, 1-(2-phenylimidazo[1,2-a]pyridin-3-yl)-3-(2-phenylpyridin-3-yl)urea], 0.45 µM. Molecule `Cc1cc(NC(=O)Nc2c(-c3ccccc3)nc3ccccn23)n(-c2ccccc2)n1` [Compound 25, 1-(3-methyl-1-phenyl-1H-pyrazol-5-yl)-3-(2-phenylimidazo[1,2-a]pyridin-3-yl)urea] showed an IC50 of 0.52 µM. `Cc1nc(-c2ccccc2)c(NC(=O)Nc2c(-c3ccccc3)nc3ccccn23)s1` [Compound 26, 1-(2-methyl-4-phenyl-1,3-thiazol-5-yl)-3-(2-phenylimidazo[1,2-a]pyridin-3-yl)urea] returned an IC50 of 0.048 µM. On to `Cn1ccnc1-c1cccc(NC(=O)Nc2c(-c3ccccc3)nc3ccccn23)c1` [Compound 27, 1-[3-(1-methyl-1H-imidazol-2-yl)phenyl]-3-(2-phenylimidazo[1,2-a]pyridin-3-yl)urea], for which half-maximal inhibition (IC50) was put at 1.6 µM.

In the case of `CCOC(=O)c1nc2ccccn2c1NC(=O)Nc1c(-c2ccccc2)nc2ccccn12` [Compound 28, ethyl 3-{[(2-phenylimidazo[1,2-a]pyridin-3-yl)carbamoyl]amino} imidazo[1,2-a]pyridine-2-carboxylate], half-maximal inhibition (IC50) was put at 0.46 µM. In turn, `O=C(Nc1c(-c2ccccc2)nc2ccccn12)Nc1c(-n2cccn2)nc2ccccn12` [Compound 29, 1-(2-phenylimidazo[1,2-a]pyridin-3-yl)-3-[2-(1H-pyrazol-1-yl)imidazo[1,2-a]pyridin-3-yl]urea] displayed an IC50 of 1.4 µM.

`O=C(Nc1c(-c2ccccc2)nc2ccccn12)Nc1c(-c2ccccc2)nc2ncccn12` [Compound 30, 1-(2-phenylimidazo[1,2-a]pyridin-3-yl)-3-(2-phenylimidazo[1,2-a]pyrimidin-3-yl)urea] gave an IC50 of 1.5 µM. Turning to `O=C(Nc1c(-c2ccccc2)nc2ccccn12)Nc1c(-c2ccccc2)nc2ccc(Cl)nn12` [Compound 31, 1-(6-chloro-2-phenylimidazo[1,2-b]pyridazin-3-yl)-3-(2-phenylimidazo[1,2-a]pyridin-3-yl)urea], the IC50 turned out to be 1 µM. Next, `CNC(=O)c1nc2ccccn2c1NC(=O)Nc1c(-c2ccccc2)nc2ccccn12` [Compound 32, N-methyl-3-{[(2-phenylimidazo[1,2-a]pyridin-3-yl)carbamoyl]amino}imidazo[1,2-a]pyridine-2-carboxamide]: 1 µM; `Cc1nc(-c2ccccc2)c(NC(=O)Nc2c(-c3ccccc3)ncn2C)s1` [Compound 33, 1-(1-methyl-4-phenyl-1H-imidazol-5-yl)-3-(2-methyl-4-phenyl-1,3-thiazol-5-yl)urea]: 4 µM; `Cc1nc(-c2ccccc2)c(NC(=O)Nc2c(-c3ccccc3)nc(C)n2C)s1` [Compound 34, 1-(1,2-dimethyl-4-phenyl-1H-imidazol-5-yl)-3-(2-methyl-4-phenyl-1,3-thiazol-5-yl)urea]: 4.1 µM. The molecule `Cc1nc(-c2ccccc2)c(NC(=O)Nc2sc(C)nc2-c2ccccc2)s1` [Compound 35, 1,3-bis(2-methyl-4-phenyl-1,3-thiazol-5-yl)urea] displayed an IC50 of 0.61 µM. On to `Cc1ncc(NC(=O)Nc2sc(C)nc2-c2ccccc2)c(-c2ccccc2)n1` [Compound 36, 1-(2-methyl-4-phenylpyrimidin-5-yl)-3-(2-methyl-4-phenyl-1,3-thiazol-5-yl)urea], for which the IC50 turned out to be 2.3 µM.

`Cc1nc(-c2ccccc2)c(NC(=O)Nc2cccnc2-c2ccccc2)s1` [Compound 37, 1-(2-methyl-4-phenyl-1,3-thiazol-5-yl)-3-(2-phenylpyridin-3-yl)urea] had an IC50 of 1.8 µM. `O=C(NCc1cc(F)ccc1C(F)(F)F)Nc1ccnn1-c1ccccc1` [Compound 38, 1-[5-fluoro-2-(trifluoromethyl)benzyl]-3-(1-phenyl-1H-pyrazol-5-yl)urea] returned an IC50 of 1.1 µM. For the molecule `O=C(NCc1ccc(F)cc1C(F)(F)F)Nc1ccnn1-c1ccccc1` [Compound 39, 1-[4-fluoro-2-(trifluoromethyl)benzyl]-3-(1-phenyl-1H-pyrazol-5-yl)urea], 1.4 µM corresponded to half-maximal inhibition (IC50).
